Test results as given in US20060069132A1, “Azolecarboxamide herbicides” (priority 2004, published 2006).

What was measured:
[1] = tested on: bermudagrass; experiment: Test C pre-/postemergence herbicide test; type: in vivo, Cynodon dactylon
How it was run: (§1)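 Pre/post spray; non-phytotoxic solvent + surfactant. Post-timing 1–4 leaves, 2–18 cm. Read-out: visual % control vs untreated, day 12–14, greenhouse.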

[2] = tested on: corn; experiment: Test C pre-/postemergence herbicide test; type: in vivo, Zea mays
How it was run: as §1

[3] = tested on: large crabgrass; experiment: Test C pre-/postemergence herbicide test; type: in vivo, Digitaria sanguinalis
How it was run: as §1

[4] = tested on: giant foxtail; experiment: Test C pre-/postemergence herbicide test; type: in vivo, Setaria faberi
How it was run: as §1

[5] = tested on: kochia; experiment: Test C pre-/postemergence herbicide test; type: in vivo, Kochia scoparia
How it was run: as §1

[6] = tested on: morningglory; experiment: Test C pre-/postemergence herbicide test; type: in vivo, Ipomoea coccinea; set-up: key to Plant response rating, Morningglory: 0 = no effect, 100 = complete control
How it was run: as §1

[7] = tested on: common ragweed; experiment: Test C pre-/postemergence herbicide test; type: in vivo, Ambrosia elatior; set-up: key to Plant response rating, Ragweed: 0 = no effect, 100 = complete control
How it was run: as §1

[8] = tested on: common (oilseed) sunflower; experiment: Test C pre-/postemergence herbicide test; type: in vivo, Helianthus annuus; settings: preemergence
How it was run: as §1

[9] = tested on: rice; experiment: Test C flooded paddy test; type: in vivo, Oryza sativa; settings: for Plant response rating, Rice: 500 g ai/ha, visual rating after 12 to 14 days
How it was run: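 Postemergence sprays applied to plants 2 to 18 cm tall (1- to 4-leaf stage); paddy species grown to 2-leaf stage under flooding. After 12 to 14 days in greenhouse, visual rating versus untreated controls on 0–100 scale (0 no effect, 100 complete control).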

[10] = tested on: smallflower umbrella sedge; experiment: Test C flooded paddy test; type: in vivo, Cyperus difformis; settings: for Plant response rating, Sedge, Umbrella: 500 g ai/ha, visual rating after 12 to 14 days
[11] = tested on: ducksalad; experiment: Test C flooded paddy test; type: in vivo, Heteranthera limosa; settings: for Plant response rating, Ducksalad: 500 g ai/ha, visual rating after 12 to 14 days
[12] = 62 g ai/ha, preemergence, scale 0 to 100, 0 no effect, 100 complete control
[13] = 250 g ai/ha, scale 0-100, preemergence
[14] = 500 g ai/ha, scale 0 to 100 (0 no effect, 100 complete control), visual, 12 to 14 days, preemergence
[15] = 62 g ai/ha, preemergence, scale 0 to 100
[16] = 500 g ai/ha, scale 0 to 100 (0 no effect, 100 complete control), visual, 12 to 14 days
[17] = 125 g ai/ha, scale 0 to 100 (0 no effect, 100 complete control)
[18] = 250 g ai/ha, scale of 0 to 100, 0 is no effect, 100 is complete control
[19] = scale 0 to 100 (0 no effect, 100 complete control)
[20] = 125 g ai/ha, scale 0 (no effect) to 100 (complete control), visual, 12 to 14 days, preemergence
[21] = Postemergence, 500 g ai/ha, scale 0 to 100
[22] = Postemergence, 250 g ai/ha, scale 0 to 100, 0 no effect, 100 complete control
[23] = postemergence, 125 g ai/ha, scale 0 to 100
[24] = postemergence, 62 g ai/ha, scale 0 to 100

## CCNC(=O)c1cccc(NC(=O)c2nn(C(C)(C)CC)nc2CC)c1 [Compound 376]
[1]; [12]
  Plant response rating, Bermudagrass: 80
[1]; 125 g ai/ha, preemergence
  Plant response rating (0 = no effect, 100 = complete control), Bermudagrass: 90
[1]; [13]
  Plant response rating, Bermudagrass: 100
[1]; [14]
  Plant response rating, Bermudagrass: 100
[2]; [15]
  Plant response rating, Corn: 20
[2]; 125 g ai/ha, preemergence
  Plant response rating (0 = no effect, 100 = complete control), Corn: 40
[2]; [13]
  Plant response rating, Corn: 45
[2]; [14]
  Plant response rating, Corn: 50
[3]; [15]
  Plant response rating, Crabgrass, Large: 80
[3]; 125 g ai/ha, preemergence
  Plant response rating (0 = no effect, 100 = complete control), Crabgrass, Large: 100
[3]; [13]
  Plant response rating, Crabgrass, Large: 100
[3]; [14]
  Plant response rating, Crabgrass, Large: 100
[4]; [15]
  Plant response rating, Foxtail, Giant: 10
[4]; 125 g ai/ha, preemergence
  Plant response rating (0 = no effect, 100 = complete control), Foxtail, Giant: 85
[4]; [13]
  Plant response rating, Foxtail, Giant: 95
[4]; [14]
  Plant response rating, Foxtail, Giant: 100
[5]; [15]
  Plant response rating, Kochia: 95
[5]; 125 g ai/ha, preemergence
  Plant response rating (0 = no effect, 100 = complete control), Kochia: 100
[5]; [13]
  Plant response rating, Kochia: 100
[5]; [14]
  Plant response rating, Kochia: 100
[6]; [15]
  Plant response rating, Morningglory: 0
[6]; 125 g ai/ha, preemergence
  Plant response rating (0 = no effect, 100 = complete control), Morningglory: 0
[6]; [13]
  Plant response rating, Morningglory: 5
[6]; [14]
  Plant response rating, Morningglory: 5
[7]; [15]
  Plant response rating, Ragweed: 0
[7]; 125 g ai/ha, preemergence
  Plant response rating (0 = no effect, 100 = complete control), Ragweed: 0
[7]; [13]
  Plant response rating, Ragweed: 50
[7]; [14]
  Plant response rating, Ragweed: 50
[8]; 62 g ai/ha, scale 0 to 100
  Plant response rating, Sunflower: 0
[8]; 125 g ai/ha
  Plant response rating (0 = no effect, 100 = complete control), Sunflower: 0
[8]; 250 g ai/ha, scale 0-100
  Plant response rating, Sunflower: 0
[8]; [16]
  Plant response rating, Sunflower: 0
[9]; 62 g ai/ha, scale 0 to 100
  Rice plant response rating: 70
[9]; [17]
  Rice plant response rating: 75
[9]; [18]
  Rice plant response rating: 75
[9]; [19]
  Plant response rating, Rice: 80
[10]; 62 g ai/ha, scale 0 to 100
  Sedge, Umbrella plant response rating: 80
[10]; [17]
  Sedge, Umbrella plant response rating: 85
[10]; [18]
  Sedge, Umbrella plant response rating: 85
[10]; [19]
  Plant response rating, Sedge, Umbrella: 85
[11]; 62 g ai/ha, scale 0 to 100
  Ducksalad plant response rating: 25
[11]; [17]
  Ducksalad plant response rating: 85
[11]; [18]
  Ducksalad plant response rating: 85
[11]; [19]
  Plant response rating, Ducksalad: 85

## CCn1nc(C(C)(C)C)cc1C(=O)Nc1cccc(OC(F)(F)C(F)F)c1 [Compound 333]
[1]; [12]
  Plant response rating, Bermudagrass: 40
[1]; [20]
  Plant response rating, Bermudagrass: 85
[1]; [13]
  Plant response rating, Bermudagrass: 100
[1]; [21]
  Bermudagrass plant response rating: 5
[1]; [22]
  Plant response rating, Bermudagrass: 5
[1]; Preemergence, 500 g ai/ha, scale 0 to 100, 0 no effect, 100 complete control
  Bermudagrass plant response rating: 100
[1]; [23]
  Plant response rating, Bermudagrass: 0
[1]; [24]
  Plant response rating, Bermudagrass: 0
[2]; [15]
  Plant response rating, Corn: 0
[2]; [20]
  Plant response rating, Corn: 0
[2]; [13]
  Plant response rating, Corn: 0
[2]; [14]
  Plant response rating, Corn: 0
[2]; [21]
  Corn plant response rating: 5
[2]; [22]
  Plant response rating, Corn: 5
[2]; [23]
  Plant response rating, Corn: 5
[2]; [24]
  Plant response rating, Corn: 5
[3]; [15]
  Plant response rating, Crabgrass, Large: 20
[3]; [20]
  Plant response rating, Crabgrass, Large: 70
[3]; [13]
  Plant response rating, Crabgrass, Large: 100
[3]; [14]
  Plant response rating, Crabgrass, Large: 100
[3]; [21]
  Crabgrass, Large plant response rating: 10
[3]; [22]
  Plant response rating, Crabgrass, Large: 5
[3]; [23]
  Plant response rating, Crabgrass, Large: 5
[3]; [24]
  Plant response rating, Crabgrass, Large: 0
[4]; [15]
  Plant response rating, Foxtail, Giant: 0
[4]; [20]
  Plant response rating, Foxtail, Giant: 10
[4]; [13]
  Plant response rating, Foxtail, Giant: 50
[4]; [14]
  Plant response rating, Foxtail, Giant: 75
[4]; [21]
  Foxtail, Giant plant response rating: 10
[4]; [22]
  Plant response rating, Foxtail, Giant: 10
[4]; [23]
  Plant response rating, Foxtail, Giant: 5
[4]; [24]
  Plant response rating, Foxtail, Giant: 5
[5]; [15]
  Plant response rating, Kochia: 80
[5]; [20]
  Plant response rating, Kochia: 100
[5]; [13]
  Plant response rating, Kochia: 100
[5]; [14]
  Plant response rating, Kochia: 100
[5]; [21]
  Kochia plant response rating: 100
[5]; [22]
  Plant response rating, Kochia: 100
[5]; [23]
  Plant response rating, Kochia: 100
[5]; [24]
  Plant response rating, Kochia: 90
[6]; [15]
  Plant response rating, Morningglory: 0
[6]; [20]
  Plant response rating, Morningglory: 0
[6]; [13]
  Plant response rating, Morningglory: 0
[6]; [14]
  Plant response rating, Morningglory: 10
[6]; [21]
  Morningglory plant response rating: 10
[6]; [22]
  Plant response rating, Morningglory: 10
[6]; [23]
  Plant response rating, Morningglory: 0
[6]; [24]
  Plant response rating, Morningglory: 0
[7]; [15]
  Plant response rating, Ragweed: 0
[7]; [13]
  Plant response rating, Ragweed: 50
[7]; [14]
  Plant response rating, Ragweed: 65
[7]; [21]
  Ragweed plant response rating: 50
[7]; [22]
  Plant response rating, Ragweed: 50
[7]; [23]
  Plant response rating, Ragweed: 30
[7]; [24]
  Plant response rating, Ragweed: 5
[8]; 62 g ai/ha, scale 0 to 100
  Plant response rating, Sunflower: 0
[8]; 250 g ai/ha, scale 0-100
  Plant response rating, Sunflower: 0
[8]; [16]
  Plant response rating, Sunflower: 0
[9]; 62 g ai/ha, scale 0 to 100
  Rice plant response rating: 0
[9]; [17]
  Rice plant response rating: 0
[9]; [18]
  Rice plant response rating: 15
[9]; [19]
  Plant response rating, Rice: 20
[10]; 62 g ai/ha, scale 0 to 100
  Sedge, Umbrella plant response rating: 0
[10]; [17]
  Sedge, Umbrella plant response rating: 15
[10]; [18]
  Sedge, Umbrella plant response rating: 30
[10]; [19]
  Plant response rating, Sedge, Umbrella: 80
[11]; 62 g ai/ha, scale 0 to 100
  Ducksalad plant response rating: 0
[11]; [17]
  Ducksalad plant response rating: 0
[11]; [18]
  Ducksalad plant response rating: 0
[11]; [19]
  Plant response rating, Ducksalad: 25
